Source: ChEMBL document CHEMBL1143190, “Synthesis and structure-activity relationships of soluble 8-substituted 4-(2-chlorophenyl)-9-hydroxypyrrolo[3,4-c]carbazole-1,3(2H,6H)-diones as inhibitors of the Wee1 and Chk1 checkpoint kinases” (Bioorg Med Chem Lett, 2008)

What was measured:
Wee1-like protein kinase = Wee1-like protein kinase (Homo sapiens, UniProt P30291)
physchem [1] = experiment: physchem
Description: Dissociation constant, pKa of the compound

HT-29 [2] = experiment: cells; assay type: functional, cell-based; details: Homo sapiens, HT-29, 72 h
Description: Cytotoxicity against human HT29 cells after 72 hrs

HT-29 [3] = experiment: cells; assay type: cell-based; details: Homo sapiens
Description: Inhibition of human Cdc2/cyclin B-mediated histone H1 kinase phosphorylation in HT29 cells

[4] = molecular target: Cyclin-dependent kinase 1 (Homo sapiens, UniProt P06493); assay type: cell-based; details: ht-29
Chain of Cyclin-dependent kinase 1 (P06493 whole entry): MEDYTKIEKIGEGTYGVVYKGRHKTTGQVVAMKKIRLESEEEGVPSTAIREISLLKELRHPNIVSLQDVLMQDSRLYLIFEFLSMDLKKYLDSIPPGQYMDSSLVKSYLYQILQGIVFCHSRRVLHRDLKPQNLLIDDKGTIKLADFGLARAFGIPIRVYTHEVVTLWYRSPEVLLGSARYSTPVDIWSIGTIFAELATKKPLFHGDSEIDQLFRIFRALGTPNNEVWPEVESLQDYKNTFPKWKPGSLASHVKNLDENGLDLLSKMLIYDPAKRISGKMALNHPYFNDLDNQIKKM
Description: Inhibition of human Cdc2 kinase PY15 phosphorylation in HT29 cells by Western blot

[5] = molecular target: T1, Serine/threonine-protein kinase Chk1 (Homo sapiens, UniProt O14757)
T1 sequence (O14757 whole entry): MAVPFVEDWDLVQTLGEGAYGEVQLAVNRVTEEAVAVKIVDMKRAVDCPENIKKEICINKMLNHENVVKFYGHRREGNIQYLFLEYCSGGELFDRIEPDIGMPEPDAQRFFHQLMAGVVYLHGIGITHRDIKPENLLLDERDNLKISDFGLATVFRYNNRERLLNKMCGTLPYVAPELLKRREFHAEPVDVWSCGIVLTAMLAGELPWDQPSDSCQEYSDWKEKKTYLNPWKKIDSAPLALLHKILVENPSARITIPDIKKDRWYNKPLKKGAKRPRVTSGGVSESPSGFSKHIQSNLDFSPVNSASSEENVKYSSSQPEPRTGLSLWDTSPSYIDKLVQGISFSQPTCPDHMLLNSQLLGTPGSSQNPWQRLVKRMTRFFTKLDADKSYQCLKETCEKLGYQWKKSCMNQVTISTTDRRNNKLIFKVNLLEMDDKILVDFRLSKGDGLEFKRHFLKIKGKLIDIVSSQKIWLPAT

physchem [6] = details: buffer
Description: Aqueous solubility in water

Chain of Wee1-like protein kinase (P30291 whole entry): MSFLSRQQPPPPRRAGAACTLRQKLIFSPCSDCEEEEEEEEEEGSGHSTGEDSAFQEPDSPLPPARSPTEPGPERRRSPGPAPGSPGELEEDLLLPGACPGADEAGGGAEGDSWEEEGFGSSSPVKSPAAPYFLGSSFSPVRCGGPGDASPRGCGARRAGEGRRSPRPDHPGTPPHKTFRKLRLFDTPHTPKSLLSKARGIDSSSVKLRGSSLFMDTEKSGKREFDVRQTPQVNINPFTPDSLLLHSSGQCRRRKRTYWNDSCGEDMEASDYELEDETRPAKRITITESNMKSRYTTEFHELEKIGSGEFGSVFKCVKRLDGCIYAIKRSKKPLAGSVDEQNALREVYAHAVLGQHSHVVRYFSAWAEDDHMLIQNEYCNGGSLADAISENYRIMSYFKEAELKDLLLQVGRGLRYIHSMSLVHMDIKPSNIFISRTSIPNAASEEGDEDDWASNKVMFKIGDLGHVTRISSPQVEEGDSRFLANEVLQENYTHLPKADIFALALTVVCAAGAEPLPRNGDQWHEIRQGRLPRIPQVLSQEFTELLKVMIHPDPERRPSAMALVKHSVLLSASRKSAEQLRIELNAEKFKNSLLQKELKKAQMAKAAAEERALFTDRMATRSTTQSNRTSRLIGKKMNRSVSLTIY

Row | IC50 (Wee1-like protein kinase) [nM] | pKa (physchem [1]) | IC50 (HT-29 [2]) [nM] | IC50 (HT-29 [3]) [nM] | IC50 [4] [nM] | IC50 [5] [nM] | solubility (physchem [6]) [µg/mL] | SMILES
1 |  | 10.5 | 310 | 230 | 30 |  |  | Cn1c2cc(OCCCN3CCCC3)c(O)cc2c2c3c(c(-c4ccccc4Cl)cc21)C(=O)NC3=O
2 | 24 | 10.5 |  |  |  |  |  | O=C1NC(=O)c2c1c(-c1ccccc1Cl)cc1c2c2cc(O)c(CCCCN3CCCC3)cc2n1CCO
3 | 160 | 10.5 |  |  |  |  |  | Cn1c2cc(S(=O)(=O)CCCN3CCCC3)c(O)cc2c2c3c(c(-c4ccccc4Cl)cc21)C(=O)NC3=O
4 | 24 | 10.5 |  | 860 | 30 |  |  | O=C1NC(=O)c2c1c(-c1ccccc1Cl)cc1c2c2cc(O)c(OCCCN3CCCC3)cc2n1CCO
5 | 33 | 10.5 |  |  |  | 7 |  | Cn1c2cc([S+]([O-])CCCN3CCCC3)c(O)cc2c2c3c(c(-c4ccccc4Cl)cc21)C(=O)NC3=O (configuration not stated)
6 | 35 | 10.5 |  |  |  |  |  | O=C1NC(=O)c2c1c(-c1ccccc1Cl)cc1[nH]c3cc(OCCCN4CCCC4)c(O)cc3c21
7 | 36 | 10.5 |  |  |  |  |  | Cn1c2cc(CCCCN3CCCC3)c(O)cc2c2c3c(c(-c4ccccc4Cl)cc21)C(=O)NC3=O
8 |  | 10.5 |  |  |  |  |  | Cn1c2cc(C(=O)NCCN3CCCC3)c(O)cc2c2c3c(c(-c4ccccc4Cl)cc21)C(=O)NC3=O
9 | 50 | 10.5 |  | 780 | 200 |  |  | O=C1NC(=O)c2c1c(-c1ccccc1Cl)cc1[nH]c3cc(CCCCN4CCCC4)c(O)cc3c21
10 | 46 | 10.5 |  |  |  |  |  | Cn1c2cc(S(=O)(=O)NCCN3CCCC3)c(O)cc2c2c3c(c(-c4ccccc4Cl)cc21)C(=O)NC3=O
11 | 20 | 10.5 |  |  |  |  |  | Cn1c2cc(SCCCN3CCCC3)c(O)cc2c2c3c(c(-c4ccccc4Cl)cc21)C(=O)NC3=O

The remaining lines, values behind:

Row | SMILES | IC50 (Wee1-like protein kinase) [nM] | pKa (physchem [1]) | IC50 (HT-29 [2]) [nM] | IC50 (HT-29 [3]) [nM] | IC50 [4] [nM] | IC50 [5] [nM] | solubility (physchem [6]) [µg/mL]
12 | CN(C)CCCCc1cc2c(cc1O)c1c3c(c(-c4ccccc4Cl)cc1n2C)C(=O)NC3=O | 34 | 9.5 |  |  |  |  | 
13 | O=C1NC(=O)c2c1c(-c1ccccc1Cl)cc1[nH]c3cc(OCCCN4CCOCC4)c(O)cc3c21 | 26 | 7.8 |  |  |  |  | 
14 | O=C1NC(=O)c2c1c(-c1ccccc1Cl)cc1c2c2cc(O)c(CCCCN3CCOCC3)cc2n1CCO | 19 | 7.8 |  |  |  |  | 
15 | O=C1NC(=O)c2c1c(-c1ccccc1Cl)cc1c2c2cc(O)c(OCCCN3CCOCC3)cc2n1CCO | 15 | 7.8 |  | 530 | 250 |  | 
16 | Cn1c2cc(OCCCN3CCOCC3)c(O)cc2c2c3c(c(-c4ccccc4Cl)cc21)C(=O)NC3=O | 57 | 7.8 |  |  |  |  | 
17 | CN(C)CCCOc1cc2[nH]c3cc(-c4ccccc4Cl)c4c(c3c2cc1O)C(=O)NC4=O | 26 | 9.5 |  |  |  |  | 
18 | CN(C)CCCCc1cc2[nH]c3cc(-c4ccccc4Cl)c4c(c3c2cc1O)C(=O)NC4=O | 49 | 9.5 |  | 880 | 250 |  | 
19 | CN(C)CCCOc1cc2c(cc1O)c1c3c(c(-c4ccccc4Cl)cc1n2CCO)C(=O)NC3=O | 18 | 9.5 |  | 750 | 250 |  | 
20 | O=C1NC(=O)c2c1c(-c1ccccc1Cl)cc1[nH]c3cc(CCCCN4CCOCC4)c(O)cc3c21 | 37 | 7.8 |  | 1230 | 250 |  | 
21 | CN(C)CCCOc1cc2c(cc1O)c1c3c(c(-c4ccccc4Cl)cc1n2C)C(=O)NC3=O |  | 9.5 | 230 |  | 10 |  | 
22 | O=C1NC(=O)c2c1c(-c1ccccc1Cl)cc1c2c2cc(O)ccc2n1CCCO |  |  |  |  | 250 |  | < 3
23 | Cn1c2cc(CCCCN3CCOCC3)c(O)cc2c2c3c(c(-c4ccccc4Cl)cc21)C(=O)NC3=O | 30 | 7.8 |  |  |  |  | 
24 | CN(C)CCCOc1cc2c(cc1O)c1c3c(c(-c4ccccc4Cl)cc1n2C)C(=O)NC3=O.Cl |  |  |  |  |  |  | 2200
